From patent US10689384B2, “Imidazo[1,2-a]quinoxalines and derivatives thereof for the treatment of cancer” (Universite de Montpellier, priority 2014, dated 2020)
pEC50, pIC50: −log10 of the molar value.

Columns and labels:
human cancer cell lines = experiment: In vitro cytotoxicity study, Summarized results 2 (cell line not given); type: cell-based; details: Table 4, Summarized results 2, cell line not stated
Procedure: (§1) The goal of this protocol is to study the effects of the compounds on the proliferation of various human cancer cell lines in order to evaluate the EC50 and their activity in cellulo.
(§2) The cells are seeded the day before treatment in 96 well plates. Each compound concentration is tested in triplicate. A 96 well plate can contain 3 compounds.
(§3) Stock solutions of the tested compounds are prepared at 10 mM in 100% DMSO and stored at […].
(§4) The analysis is carried out by using the GraphPad PRISM 5.0 software.
(§5) Day 1: the cells are seeded one day before treatment with the compounds in 96 well plates. Cell suspensions for each cancer cell line are prepared with a specific density in a specific culture medium (see preceding table). Next, 100 µL of cell suspension is distributed per well (1×96 well plate per cell line).
(§6) Day 2: 24 hours later, the […] compounds or controls (DMSO) are added to the cells ([…] of a compound solution in its specific medium with a final DMSO concentration of 0.15%).
(§7) Each compound concentration is tested in triplicate (6 concentrations between 10^−9 M and 10^−5 M per compound). The cells are incubated at 37° C. for 72 hours with no new treatment.
(§8) Day 5: 15 minutes before incubation of the cells with MTT (3-[4,5-dimethylthiazol-2-yl]-2,5-diphenyltetrazolium bromide), 10% SDS is added to the control wells to obtain a final concentration of 1%. The positive control of inhibition of proliferation is 1% SDS.
(§9) Once the medium is removed, 100 µL of a solution of MTT in fresh medium is added to each well (10 μL of 10×MTT solution at 5 mg/mL in PBS +[…] of fresh medium) and the plates are incubated for 4 hours at 37° C.
(§10) The MTT reaction is quenched and the medium is homogenized by addition of […] of 10% SDS/0.01 M HCl solution placed in each well. The medium is incubated for 2 hours at 37° C. before measuring its absorbance. Absorbance is measured at 570 nm.

BxPC3 = experiment: In vitro cytotoxicity study, inhibition of cell growth (MTT); type: cell-based; details: Homo sapiens, BXPC-3, BxPC3, pancreas, 72 hours
Procedure: as §1, §2
(§11) Cell suspensions for each cancer cell line are prepared in culture medium with a specific density of the specific cell (see the following table). Then, 100 µL of cell suspension is spread per well (plate per one cell line).
as §3, §4, §5, §6, §7, §8, §9, §10

HepG2 = experiment: as above; type: cell-based; details: Homo sapiens, HepG2, liver, 72 hours
Procedure: as §1, §2, §11, §3, §4, §5, §6, §7, §8, §9, §10

PC-3 = experiment: as above; type: cell-based; details: Homo sapiens, PC-3, prostate, 72 hours
Procedure: as §1, §2, §11, §3, §4, §5, §6, §7, §8, §9, §10

IPC298 = experiment: as above; type: cell-based; details: Homo sapiens, IPC-298, IPC298, melanoma, 72 hours
Procedure: as §1, §2, §11, §3, §4, §5, §6, §7, §8, §9, §10

PF382 = experiment: as above; type: cell-based; details: Homo sapiens, PF-382, PF382, lymphoid, 72 hours
Procedure: as §1, §2, §11, §3, §4, §5, §6, §7, §8, §9, §10

AsPC-1 = experiment: as above; type: cell-based; details: Homo sapiens, ASPC1, AsPC-1, pancreas, 72 hours
Procedure: as §1, §2, §11, §3, §4, §5, §6, §7, §8, §9, §10

CFPAC-1 = experiment: as above; type: cell-based; details: Homo sapiens, CFPAC-1, pancreas, 72 hours
Procedure: as §1, §2, §11, §3, §4, §5, §6, §7, §8, §9, §10

LoVo = experiment: as above; type: cell-based; details: Homo sapiens, colon, 72 hours
Procedure: as §1, §2, §11, §3, §4, §5, §6, §7, §8, §9, §10

COLO-205 = experiment: as above; type: cell-based; details: Homo sapiens, COLO-205, colon, 72 hours
Procedure: as §1, §2, §11, §3, §4, §5, §6, §7, §8, §9, §10

Calu-1 = experiment: as above; type: cell-based; details: Homo sapiens, Calu-1, lung, 72 hours
Procedure: as §1, §2, §11, §3, §4, §5, §6, §7, §8, §9, §10

A375 = experiment: as above; type: cell-based; details: Homo sapiens, A-375, A375, melanoma, 72 hours
Procedure: as §1, §2, §11, §3, §4, §5, §6, §7, §8, §9, §10

A2058 = experiment: as above; type: cell-based; details: Homo sapiens, A2058, melanoma, 72 hours
Procedure: as §1, §2, §11, §3, §4, §5, §6, §7, §8, §9, §10

T-47D = experiment: as above; type: cell-based; details: Homo sapiens, T47D, breast, 72 hours
Procedure: as §1, §2, §11, §3, §4, §5, §6, §7, §8, §9, §10

MEWO = experiment: as above; type: cell-based; details: Homo sapiens, melanoma, 72 hours
Procedure: as §1, §2, §11, §3, §4, §5, §6, §7, §8, §9, §10

Capan-1 = experiment: as above; type: cell-based; details: Homo sapiens, Capan-1, pancreas, 72 hours
Procedure: as §1, §2, §11, §3, §4, §5, §6, §7, §8, §9, §10

purified tubulin = target: T1, purified tubulin (Sus scrofa, UniProt P02550+P02554); experiment: Effect on the polymerization of purified tubulin (turbidimetry at 350 nm); type: biochemical, pig; details: 2.4 μM tubulin, 37° C.
T1 construct: Tubulin is prepared from pig brain; from tissue; host or cells: pig brain
Procedure: FIG. 1. Study of the innovative effect of compounds of the selection patent on the polymerization of purified tubulin. This is a comparative study of the effect on the polymerization of purified tubulin by compounds of the selection patent compared to that of the compounds of the patent FR 2,921,927. Polymerized tubulin absorbs at 350 nm.
Tubulin is prepared from pig brain according to the purification process described by Williams and Lee (1982). Tubulin polymerization is monitored by turbidimetry at 350 nm with an MC2 spectrophotometer (Safas, Monaco) equipped with a heat-jacketed cuvette holder. The reaction mixture was prepared at 0° C., and contains PEM buffer, 25% glycerol (v/v), 1 mM GTP, and 2.4 μM tubulin. The GTP and the tubulin are added at the last minute. […] The same volume of DMSO alone was used as a negative control. The final volume of the sample is […]. The reaction is initiated by placing the cuvette in the cell compartment of the spectrophotometer thermostated at 37° C. Ice is added 45 minutes later to launch depolymerization in order to confirm the specificity of the signal.

T1 sequence (P02550 whole entry): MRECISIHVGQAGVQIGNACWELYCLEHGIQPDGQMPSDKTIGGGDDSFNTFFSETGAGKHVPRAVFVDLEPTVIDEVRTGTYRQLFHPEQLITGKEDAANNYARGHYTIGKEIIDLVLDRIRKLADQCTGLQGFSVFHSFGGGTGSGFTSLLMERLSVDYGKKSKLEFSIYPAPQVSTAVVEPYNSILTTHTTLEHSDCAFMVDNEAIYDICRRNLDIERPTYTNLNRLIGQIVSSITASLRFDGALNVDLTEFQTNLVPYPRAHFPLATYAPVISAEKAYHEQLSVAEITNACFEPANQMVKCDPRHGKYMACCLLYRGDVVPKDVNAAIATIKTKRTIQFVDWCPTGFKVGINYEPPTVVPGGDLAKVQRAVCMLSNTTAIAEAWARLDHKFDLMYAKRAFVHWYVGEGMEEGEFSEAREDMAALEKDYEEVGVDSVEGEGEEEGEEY
T1 sequence (P02554 whole entry): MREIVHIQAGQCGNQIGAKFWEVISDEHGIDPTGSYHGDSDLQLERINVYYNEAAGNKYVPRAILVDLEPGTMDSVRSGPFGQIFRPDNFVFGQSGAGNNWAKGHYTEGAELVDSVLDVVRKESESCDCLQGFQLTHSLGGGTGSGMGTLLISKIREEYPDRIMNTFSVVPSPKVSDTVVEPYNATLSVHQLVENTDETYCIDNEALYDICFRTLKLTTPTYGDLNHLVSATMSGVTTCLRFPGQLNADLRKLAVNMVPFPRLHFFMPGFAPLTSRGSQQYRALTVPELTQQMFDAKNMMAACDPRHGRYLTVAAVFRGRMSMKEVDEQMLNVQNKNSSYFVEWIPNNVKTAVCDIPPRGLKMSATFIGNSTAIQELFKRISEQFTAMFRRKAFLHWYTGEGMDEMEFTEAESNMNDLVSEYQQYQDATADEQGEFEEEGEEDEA

CNc1nc2ccccc2n2c(Br)cnc12 [CPA 8, 1-Bromo-N-methylimidazo[1,2-a]quinoxalin-4-amine]
pIC50 (human cancer cell lines; Homo sapiens): 5.63

Oc1ccc(-c2cnc3c(N4CCNCC4)nc4ccccc4n23)cc1O [EAPB0 2308, 4-(4-(Piperazin-1-yl)imidazo[1,2-a]quinoxalin-1-yl)benzene-1,2-diol]
pIC50 (human cancer cell lines; Homo sapiens): < 5.00

CNc1nc2ccccc2n2c(-c3cccc(OC)c3)cnc12 [EAPB0503, 1-(3-methoxyphenyl)-N-methylimidazo[1,2-a]quinoxalin-4-amine, reference compound]
pEC50 (BxPC3): 6.80 | pEC50 (HepG2): 5.87 | pEC50 (PC-3): 6.27 | pEC50 (IPC298): 6.33 | pEC50 (PF382): 6.69 | pEC50 (AsPC-1): 5.55 | pEC50 (CFPAC-1): 6.22 | pEC50 (LoVo): 7.05 | pEC50 (COLO-205): 6.70 | pEC50 (Calu-1): 6.71 | pEC50 (A375): 6.42 | pEC50 (A2058): 6.73 | pEC50 (T-47D): 6.70 | pEC50 (MEWO): 6.90 | pEC50 (Capan-1): 6.25 | Effect on polymerization of purified tubulin (absorbance level at 350 nm) (purified tubulin): decreases the absorbance level

Nc1nc2ccccc2n2c(-c3ccc(O)c(O)c3)cnc12 [EAPB02302, 1-(3,4-Dihydroxyphenyl)imidazo[1,2-a]quinoxalin-4-amine]
pEC50 (BxPC3): 7.60 | pEC50 (HepG2): 6.57 | pEC50 (PC-3): 7.25 | pEC50 (IPC298): 7.12 | pEC50 (PF382): 7.54 | pEC50 (AsPC-1): 5.74 | pEC50 (CFPAC-1): 7.17 | pEC50 (LoVo): 7.36 | pEC50 (COLO-205): 7.36 | pEC50 (Calu-1): 7.85 | pEC50 (A375): 7.22 | pEC50 (A2058): 7.89 | pEC50 (T-47D): 7.11 | pEC50 (MEWO): 8.00 | pEC50 (Capan-1): 6.69

CNc1nc2ccccc2n2c(-c3ccc(OC)c(OC)c3)cnc12 [EAPB 02203, 1-(3,4-Dimethoxyphenyl)-N-methylimidazo[1,2-a]quinoxalin-4-amine]
pIC50 (human cancer cell lines; Homo sapiens): 6.71

CNc1nc2cc(OC(F)(F)F)ccc2n2c(-c3ccc(OC)c(OC)c3)cnc12 [EAPB 02203-7b, 1-(3,4-Dimethoxyphenyl)-N-methyl-7-(trifluoromethoxy)imidazo[1,2-a]quinoxalin-4-amine]
pIC50 (human cancer cell lines; Homo sapiens): 5.46

CNc1nc2ccc(C(F)(F)F)cc2n2c(-c3ccc(OC)c(OC)c3)cnc12 [EAPB 02203-8a, 1-(3,4-Dimethoxyphenyl)-N-methyl-8-(trifluoromethyl)imidazo[1,2-a]quinoxalin-4-amine]
pIC50 (human cancer cell lines; Homo sapiens): < 5.00

COc1ccc(-c2cnc3c(NCCNC(=O)OC(C)(C)C)nc4ccccc4n23)cc1OC [EAPB 02211, tert-Butyl (2-((1-(3,4-dimethoxyphenyl)imidazo[1,2-a]quinoxalin-4-yl)amino)ethyl)carbamate]
pIC50 (human cancer cell lines; Homo sapiens): < 5.00

COc1ccc(-c2cnc3c(NCCCCCCNC(=O)OC(C)(C)C)nc4ccccc4n23)cc1OC [EAPB 02212, tert-Butyl (6-((1-(3,4-dimethoxyphenyl)imidazo[1,2-a]quinoxalin-4-yl)amino)hexyl)carbamate]
pIC50 (human cancer cell lines; Homo sapiens): < 5.00

COc1ccc(-c2cnc3c(N4CCN(C(=O)OC(C)(C)C)CC4)nc4ccccc4n23)cc1OC [EAPB 02213, tert-Butyl 4-(1-(3,4-dimethoxyphenyl)imidazo[1,2-a]quinoxalin-4-yl)piperazine-1-carboxylate]
pIC50 (human cancer cell lines; Homo sapiens): < 5.00

COc1ccc(-c2cnc3c(NCCCNC(=O)OC(C)(C)C)nc4ccccc4n23)cc1OC [EAPB 02214, tert-Butyl (3-((1-(3,4-dimethoxyphenyl)imidazo[1,2-a]quinoxalin-4-yl)amino)propyl)carbamate]
pIC50 (human cancer cell lines; Homo sapiens): < 5.00

COc1ccc(-c2cnc3c(NC(C)C(=O)OC(C)(C)C)nc4ccccc4n23)cc1OC (stereo not drawn) [EAPB 02218]
pIC50 (human cancer cell lines; Homo sapiens): < 5.00

COc1ccc(-c2cnc3c(NC(C(=O)OC(C)(C)C)C(C)C)nc4ccccc4n23)cc1OC (stereo not drawn) [EAPB 02220]
pIC50 (human cancer cell lines; Homo sapiens): < 5.00

COc1ccc(-c2cnc3c(NC(CC(C)C)C(=O)OC(C)(C)C)nc4ccccc4n23)cc1OC (stereo not drawn) [EAPB 02222]
pIC50 (human cancer cell lines; Homo sapiens): < 5.00

CNc1nc2cc(C(F)(F)F)ccc2n2c(-c3ccc(O)c(O)c3)cnc12 [EAPB 02303-7a, 4-(4-(Methylamino)-7-(trifluoromethyl)imidazo[1,2-a]quinoxalin-1-yl)benzene-1,2-diol]
pIC50 (human cancer cell lines; Homo sapiens): 5.16

CNc1nc2cc(OC(F)(F)F)ccc2n2c(-c3ccc(O)c(O)c3)cnc12 [EAPB 02303-7b, 4-(4-(Methylamino)-7-(trifluoromethoxy)imidazo[1,2-a]quinoxalin-1-yl)benzene-1,2-diol]
pIC50 (human cancer cell lines; Homo sapiens): 6.70

CNc1nc2cc(C#N)ccc2n2c(-c3ccc(O)c(O)c3)cnc12 [EAPB 02303-7c]
pIC50 (human cancer cell lines; Homo sapiens): 5.19

CNc1nc2ccc(C(F)(F)F)cc2n2c(-c3ccc(O)c(O)c3)cnc12 [EAPB 02303-8a, 4-(4-(Methylamino)-8-(trifluoromethyl)imidazo[1,2-a]quinoxalin-1-yl)benzene-1,2-diol]
pIC50 (human cancer cell lines; Homo sapiens): < 5.00

CNc1nc2ccc(OC(F)(F)F)cc2n2c(-c3ccc(O)c(O)c3)cnc12 [EAPB 02303-8b]
pIC50 (human cancer cell lines; Homo sapiens): < 5.00

NCCNc1nc2ccccc2n2c(-c3ccc(O)c(O)c3)cnc12 [EAPB 02306, 4-(4-((2-Aminoethyl)amino)imidazo[1,2-a]quinoxalin-1-yl)benzene-1,2-diol]
pIC50 (human cancer cell lines; Homo sapiens): 5.89

NCCNc1nc2ccccc2n2c(-c3ccc(O)c(O)c3)cnc12 [EAPB 02306s, 2-((1-(3,4-Dihydroxyphenyl)imidazo[1,2-a]quinoxalin-4-yl)amino)ethylammonium chloride]
pIC50 (human cancer cell lines): 5.77

NCCCCCCNc1nc2ccccc2n2c(-c3ccc(O)c(O)c3)cnc12 [EAPB 02307, 4-(4-((6-Aminohexyl)amino)imidazo[1,2-a]quinoxalin-1-yl)benzene-1,2-diol]
pIC50 (human cancer cell lines; Homo sapiens): 5.24

NCCCNc1nc2ccccc2n2c(-c3ccc(O)c(O)c3)cnc12 [EAPB 02309, 4-(4-((3-Aminopropyl)amino)imidazo[1,2-a]quinoxalin-1-yl)benzene-1,2-diol]
pIC50 (human cancer cell lines; Homo sapiens): 5.25

O=C(CNc1nc2ccccc2n2c(-c3ccc(O)c(O)c3)cnc12)NC(CO)(CO)CO [EAPB 02310]
pIC50 (human cancer cell lines; Homo sapiens): < 5.00

CNc1nc2ccccc2n2ccnc12 [PED 26, N-Methylimidazo[1,2-a]quinoxalin-4-amine]
pIC50 (human cancer cell lines; Homo sapiens): < 5.00
